{"source": "patent US20070203057A1", "about": "“COMPOUNDS AND METHODS FOR MODULATING ADHESION MOLECULE FUNCTION” (ADHEREX TECHNOLOGIES, INC., priority 1998, published 2007)", "key": {"N-cadherin [1]": {"tested_on": "N-cadherin", "experiment": "Neurite outgrowth of rat neurons on monolayers of 3T3 cells expressing N-cadherin", "format": "cell-based", "conditions": "for Percent Inhibition of Neurite Outgrowth on 3T3 Cells Expressing N-cadherin: rat neurons, 20 hours", "experimental": "(§1) Neurons were cultured on monolayers of 3T3 cells transfected with cDNA encoding N-cadherin essentially as described by Doherty and Walsh, Curr. Op. Neurobiol. 4:49-55, 1994; Williams et al., Neuron 13:583-594, 1994; Hall et al., Cell Adhesion and Commun. 3:441-450, 1996; Doherty and Walsh, Mol. Cell. Neurosci. 8:99-111, 1994; Safell et al., Neuron 18:231-242, 1997. Briefly, monolayers of control 3T3 fibroblasts and 3T3 fibroblasts that express N-cadherin were established by overnight culture of 80,000 cells in individual wells of an 8-chamber well tissue culture slide. 3000 cerebellar neurons isolated from post-natal day 3 mouse brains were cultured for 18 hours on the various monolayers in control media (SATO/2% FCS), or media supplemented with various concentrations of the test peptide to be evaluated. The cultures were then fixed and stained for GAP43 which specifically binds to the neurons and their neurites. The length of the longest neurite on each GAP43 positive neuron was then measured by computer assisted morphometry. For each data point, measurements were made from 100-160 neurons, and the given values show the mean +/− the standard error of the mean.\n(§2) The ability of different modulating agents to inhibit neurite outgrowth was also evaluated. […] The peptides were tested at different concentrations. Rat neurons were grown for 20 hours on monolayers of either 3T3 cells, or 3T3 cells expressing N-cadherin. The cultures were then fixed, and the mean neurite length was determined by making measurements on at least 150 neurons for each treatment. The results are presented as the percentage inhibition of neurite outgrowth over 3T3 cells expressing N-cadherin.\nSimilar experiments, illustrated in Table III, were performed to evaluate the effect of various cyclic peptide modulating agents derived from EC1 of human N-cadherin on neurite outgrowth.\n(§3) To further evaluate the specificity of these peptide modulating agents, inhibition of neurite outgrowth was assessed, at 100 μg/ml, on monolayers of 3T3 cells transfected with various molecules responsible for neurite outgrowth. The results, shown in Table IV, illustrate a high level of specificity for N-cadherin mediated neurite outgrowth.\nFurther experiments were performed as described above to assess the activity of peptide modulating agents derived from EC4 of human N-cadherin."}, "N-cadherin [2]": {"tested_on": "N-cadherin", "experiment": "Neurite outgrowth of mouse cerebellar neurons on monolayers of 3T3 cells expressing N-cadherin", "format": "cell-based", "excerpt": "Within a representative neurite outgrowth assay, neurons may be cultured on a monolayer of cells (e.g., 3T3 fibroblasts) that express N-cadherin. […] For example, neurons may be cultured on monolayers of 3T3 cells transfected with cDNA encoding N-cadherin essentially as described by Doherty and Walsh, Curr. Op. Neurobiol. 4:49-55, 1994; Williams et al., Neuron 13:583-594, 1994; Hall et al., Cell Adhesion and Commun. 3:441-450, 1996; Doherty and Walsh, Mol. Cell. Neurosci. 8:99-111, 1994; and Safell et al., Neuron 18:231-242, 1997. Briefly, monolayers of control 3T3 fibroblasts and 3T3 fibroblasts that express N-cadherin may be established by overnight culture of 80,000 cells in individual wells of an 8-chamber well tissue culture slide. […] The length of the longest neurite on each GAP43 positive neuron may be measured by computer assisted morphometry.\nNeurons were cultured on monolayers of 3T3 cells transfected with cDNA encoding N-cadherin essentially as described by Doherty and Walsh, Curr. […] 3000 cerebellar neurons isolated from post-natal day 3 mouse brains were cultured for 18 hours on the various monolayers in control media (SATO/2% FCS), or media supplemented with various concentrations of the test peptide to be evaluated. […] The length of the longest neurite on each GAP43 positive neuron was then measured by computer assisted morphometry. […]"}, "NCAM [3]": {"biological_target": "T1, NCAM (Homo sapiens, UniProt P13591)", "T1 construct": "expressed in transfected cells; host or cells: 3T3 cells", "T1 sequence (P13591 20-858, species assumed)": "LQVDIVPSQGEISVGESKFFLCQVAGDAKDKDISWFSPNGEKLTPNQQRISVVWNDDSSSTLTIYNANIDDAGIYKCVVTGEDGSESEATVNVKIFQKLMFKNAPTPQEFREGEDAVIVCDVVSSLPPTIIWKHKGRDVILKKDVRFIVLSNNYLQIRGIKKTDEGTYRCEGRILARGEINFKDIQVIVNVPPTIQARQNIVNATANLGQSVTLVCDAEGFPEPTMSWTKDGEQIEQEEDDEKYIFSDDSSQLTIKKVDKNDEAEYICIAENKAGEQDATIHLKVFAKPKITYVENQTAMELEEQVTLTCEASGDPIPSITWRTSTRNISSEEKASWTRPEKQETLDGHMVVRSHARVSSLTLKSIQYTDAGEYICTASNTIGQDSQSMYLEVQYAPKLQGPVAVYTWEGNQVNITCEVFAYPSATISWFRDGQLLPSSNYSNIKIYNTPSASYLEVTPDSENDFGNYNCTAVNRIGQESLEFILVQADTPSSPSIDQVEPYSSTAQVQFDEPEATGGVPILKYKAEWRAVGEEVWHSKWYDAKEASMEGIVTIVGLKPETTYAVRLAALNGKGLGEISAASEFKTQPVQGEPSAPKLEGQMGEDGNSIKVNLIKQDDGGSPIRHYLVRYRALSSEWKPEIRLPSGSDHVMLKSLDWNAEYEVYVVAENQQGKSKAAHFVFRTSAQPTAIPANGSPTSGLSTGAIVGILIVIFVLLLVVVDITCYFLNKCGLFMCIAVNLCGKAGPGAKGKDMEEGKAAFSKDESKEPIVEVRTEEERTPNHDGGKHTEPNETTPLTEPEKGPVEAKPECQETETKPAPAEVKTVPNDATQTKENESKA", "experiment": "Neurite outgrowth of mouse cerebellar neurons on monolayers of 3T3 cells expressing NCAM", "format": "cell-based", "conditions": "250 μg/ml; FIG. 6", "experimental": "as §1, with “For each data point, measurements were made from 100-160 neurons, and the given values show the mean +/− the standard error of the mean.” left out\n(§4) The mean neurite length was further measured for neurons cultured on monolayers of 3T3 cells, 3T3 cells expressing N-cadherin, 3T3 cells expressing NCAM, and 3T3 cells expressing L1 in media containing the linear peptide H-WLKIDPVNGQI-OH (SEQ ID NO:13; designated N-CAD-CHD2) at a concentration of 250 μg/ml. […]"}, "L1 [4]": {"biological_target": "T2, L1 (Homo sapiens, UniProt P32004)", "T2 construct": "expressed in transfected cells; host or cells: 3T3 cells", "T2 sequence (P32004 20-1257)": "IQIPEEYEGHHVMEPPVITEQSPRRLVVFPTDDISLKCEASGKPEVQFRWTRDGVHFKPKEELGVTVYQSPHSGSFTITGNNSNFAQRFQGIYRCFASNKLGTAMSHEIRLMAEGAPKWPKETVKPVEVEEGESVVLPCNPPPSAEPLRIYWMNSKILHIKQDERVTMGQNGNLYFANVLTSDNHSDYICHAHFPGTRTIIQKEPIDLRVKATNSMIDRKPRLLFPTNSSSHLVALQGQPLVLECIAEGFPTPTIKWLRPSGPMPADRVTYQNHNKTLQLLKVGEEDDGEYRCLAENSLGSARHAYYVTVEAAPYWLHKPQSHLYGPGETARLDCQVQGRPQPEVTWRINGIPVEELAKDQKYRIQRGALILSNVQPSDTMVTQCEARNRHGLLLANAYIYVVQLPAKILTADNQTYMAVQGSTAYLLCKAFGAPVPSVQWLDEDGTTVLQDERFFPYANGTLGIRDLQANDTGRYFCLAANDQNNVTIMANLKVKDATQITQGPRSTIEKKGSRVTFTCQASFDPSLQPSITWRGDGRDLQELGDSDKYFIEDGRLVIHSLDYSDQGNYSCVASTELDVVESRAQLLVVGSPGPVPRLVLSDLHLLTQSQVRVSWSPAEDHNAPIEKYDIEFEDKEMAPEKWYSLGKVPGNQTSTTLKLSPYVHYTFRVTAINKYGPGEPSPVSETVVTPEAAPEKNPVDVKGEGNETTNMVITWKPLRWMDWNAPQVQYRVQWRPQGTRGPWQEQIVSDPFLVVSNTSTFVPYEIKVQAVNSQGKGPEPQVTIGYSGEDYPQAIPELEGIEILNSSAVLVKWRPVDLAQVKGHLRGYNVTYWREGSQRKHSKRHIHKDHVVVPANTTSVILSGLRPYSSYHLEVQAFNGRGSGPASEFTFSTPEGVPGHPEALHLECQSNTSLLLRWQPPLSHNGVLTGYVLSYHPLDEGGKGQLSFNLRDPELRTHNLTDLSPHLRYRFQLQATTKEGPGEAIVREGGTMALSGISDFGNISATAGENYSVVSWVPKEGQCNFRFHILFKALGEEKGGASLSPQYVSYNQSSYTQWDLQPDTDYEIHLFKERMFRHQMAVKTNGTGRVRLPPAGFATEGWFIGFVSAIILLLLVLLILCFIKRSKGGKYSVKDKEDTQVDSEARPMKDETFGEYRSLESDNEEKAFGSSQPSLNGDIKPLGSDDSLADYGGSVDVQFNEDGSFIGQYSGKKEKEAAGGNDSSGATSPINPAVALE", "experiment": "Neurite outgrowth of mouse cerebellar neurons on monolayers of 3T3 cells expressing L1", "format": "cell-based", "conditions": "250 μg/ml; FIG. 6", "experimental": "as §1, with “For each data point, measurements were made from 100-160 neurons, and the given values show the mean +/− the standard error of the mean.” left out\nas §4"}, "N-cadherin-Fc chimera": {"tested_on": "N-cadherin-Fc chimera", "experiment": "Binding of peptide to flow cell coated with N-cadherin-Fc chimera (human IgG1 control subtracted)", "conditions": "250, 500 or 1000 μg/ml, FIG. 7", "excerpt": "As noted above, native HAV-BM sequences, as well as analogues and mimetics thereof, bind to a classical cadherin, preferably within or near an HAV sequence, and modulate a cadherin-mediated response. The ability to bind to a cadherin sequence may generally be evaluated using any binding assay known to those of ordinary skill in the art. For example, a Pharmacia Biosensor machine may be used, as discussed in Jonsson et al., Biotechniques 11:520-27, 1991. A specific example of the technology that measures the interaction of peptides with molecules can be found in Williams et al., J. Biol. Chem. 272:8539-8545, 1997. Real-time BIA (Biomolecular Interaction Analysis) uses the optical phenomenon surface plasmon resonance to monitor biomolecular interactions. […] Binding to the chip is measured in real-time in arbitrary units of resonance (RU). […]\nTo determine binding, test analytes (e.g., cadherin peptides, such as HAV-containing peptides) may be placed in running buffer and passed simultaneously over test and control flow cells. […] Specific binding to the derivatized sensor chips may be determined automatically by the system by subtraction of […] flow cell responses. […]"}, "NCAM [5]": {"biological_target": "T1, NCAM", "experiment": "Neurite outgrowth over 3T3 cells transfected with NCAM", "format": "cell-based, rat", "conditions": "100 μg/ml", "experimental": "as §2, §3"}, "FGFR": {"tested_on": "FGFR", "experiment": "Neurite outgrowth over 3T3 cells transfected with FGFR", "format": "cell-based, rat", "conditions": "100 μg/ml", "experimental": "as §2, §3"}, "L1 [6]": {"biological_target": "T2, L1", "experiment": "Neurite outgrowth over 3T3 cells transfected with L1", "format": "cell-based, rat", "conditions": "100 μg/ml", "experimental": "as §2, §3"}, "[7]": {"tested_on": "human ovarian cancer cells (SKOV3)", "experiment": "Disruption of tumor cell adhesion in SKOV3 monolayer cultures", "format": "cell-based", "conditions": "1 mg/mL, 24 hours; FIG. 8B", "excerpt": "Within certain cell adhesion assays, the addition of a modulating agent to cells that express a cadherin results in disruption of cell adhesion. A “cadherin-expressing cell,” as used herein, may be any type of cell that expresses at least one cadherin on the cell surface at a detectable level, using standard techniques such as immunocytochemical protocols (e.g., Blaschuk and Farookhi, Dev. Biol. 136:564-567, 1989). Cadherin-expressing cells include endothelial, epithelial and/or cancer cells. For example, such cells may be plated under standard conditions that, in the absence of modulating agent, permit cell adhesion. In the presence of modulating agent (e.g., 500 μg/mL), disruption of cell adhesion may be determined visually within 24 hours, by observing retraction of the cells from one another.\nMonolayer cultures of human ovarian cancer cells (SKOV3) were grown in the presence and absence of the peptide N-Ac-INPISGQ-NH2 (SEQ ID NO:22)."}, "[8]": {"conditions": "10 μg/ml, cyclic peptides, Table III"}, "[9]": {"conditions": "33 μg/ml, cyclic peptides, Table III"}, "[10]": {"conditions": "100 μg/ml, cyclic peptides, Table III"}, "[11]": {"conditions": "11 μg/ml, EC4-derived peptides, Table V"}, "[12]": {"conditions": "3 μg/ml, cyclic peptides, Table III"}}, "data": [{"substance": "Ac-CINPISC-NH2 (cysteine pairing not given here)", "values": [{"measurement": "Percent Inhibition of Neurite Outgrowth", "setting": "N-cadherin [1]; [8]", "result": "21.8 ± 1.2", "unit": "%"}, {"measurement": "Percent Inhibition of Neurite Outgrowth", "setting": "N-cadherin [1]; [9]", "result": "39.5 ± 4.3", "unit": "%"}, {"measurement": "Percent Inhibition of Neurite Outgrowth", "setting": "N-cadherin [1]; [10]", "result": "73.4 ± 2.2", "unit": "%"}, {"measurement": "EC50", "setting": "N-cadherin [1]; cyclic peptides, Table III", "result": 38.1, "unit": "µM"}]}, {"substance": "H-WLKIDPVNGQI-OH", "values": [{"measurement": "Inhibition of neurite outgrowth on 3T3 cells expressing N-cadherin", "setting": "N-cadherin [2]; 250 μg/ml, FIG. 6", "result": "inhibited"}, {"measurement": "Inhibition of the N-cadherin neurite outgrowth response", "setting": "N-cadherin [2]; 125 and 250 μg/ml, FIG. 5", "result": "fully inhibited"}, {"measurement": "Inhibition of neurite outgrowth on 3T3 cells expressing NCAM", "setting": "NCAM [3]", "result": "Only neurite outgrowth on 3T3 cells expressing N-cadherin was inhibited"}, {"measurement": "Inhibition of neurite outgrowth on 3T3 cells expressing L1", "setting": "L1 [4]", "result": "Only neurite outgrowth on 3T3 cells expressing N-cadherin was inhibited"}, {"measurement": "Binding to N-cadherin-Fc chimera coated flow cell", "setting": "N-cadherin-Fc chimera", "result": "association of the peptide to the flow cell coated with the N-cadherin Fc chimera"}]}, {"substance": "N-Ac-CIDPVNC-NH2 (also: cyclic, type of ring not given here) [cyclic peptide comprising IDPVN, from EC4 of human N-cadherin]", "values": [{"measurement": "Percent Inhibition of Neurite Outgrowth", "setting": "N-cadherin [1]; [11]", "result": "15.4 ± 8.9", "unit": "%"}]}, {"substance": "N-Ac-INAISGQ-NH2 [control peptide with change in a specific amino acid]", "values": [{"measurement": "Percent Inhibition of Neurite Outgrowth on 3T3 Cells Expressing N-cadherin", "setting": "N-cadherin [1]; 33 μg/ml", "result": "12.3 ± 6.2", "unit": "%"}]}, {"substance": "N-Ac-CINPC-NH2", "values": [{"measurement": "Percent Inhibition of Neurite Outgrowth", "setting": "N-cadherin [1]; [12]", "result": "17.4 ± 5.7", "unit": "%"}, {"measurement": "Percent Inhibition of Neurite Outgrowth", "setting": "N-cadherin [1]; [8]", "result": "51.9 ± 2.5", "unit": "%"}, {"measurement": "Percent Inhibition of Neurite Outgrowth", "setting": "N-cadherin [1]; [9]", "result": "71.0 ± 6.5", "unit": "%"}, {"measurement": "Percent Inhibition of Neurite Outgrowth", "setting": "N-cadherin [1]; [10]", "result": "98.1 ± 8.2", "unit": "%"}, {"measurement": "EC50", "setting": "N-cadherin [1]; cyclic peptides, Table III", "result": 14.3, "unit": "µM"}]}, {"substance": "N-Ac-IDPVNGQ-NH2 [peptide derived from EC4 of human N-cadherin]", "values": [{"measurement": "Percent Inhibition of Neurite Outgrowth", "setting": "N-cadherin [1]; [11]", "result": "0.6 ± 10.0", "unit": "%"}]}, {"substance": "N-Ac-INPISGQ-NH2 [linear peptide derived from EC1 of human N-cadherin]", "values": [{"measurement": "Percent Inhibition of Neurite Outgrowth on 3T3 Cells Expressing N-cadherin", "setting": "N-cadherin [1]; 3 μg/ml", "result": "19.5 ± 4.3", "unit": "%"}, {"measurement": "Percent Inhibition of Neurite Outgrowth on 3T3 Cells Expressing N-cadherin", "setting": "N-cadherin [1]; 10 μg/ml", "result": "47.8 ± 4.1", "unit": "%"}, {"measurement": "Percent Inhibition of Neurite Outgrowth on 3T3 Cells Expressing N-cadherin", "setting": "N-cadherin [1]; 33 μg/ml", "result": "73.0 ± 4.6", "unit": "%"}, {"measurement": "Percent Inhibition of Neurite Outgrowth over 3T3 Cells Expressing NCAM", "setting": "NCAM [5]", "result": "6.2 ± 3.0", "unit": "%"}, {"measurement": "Percent Inhibition of Neurite Outgrowth over 3T3 Cells Expressing FGFR", "setting": "FGFR", "result": "1.9 ± 5.1", "unit": "%"}, {"measurement": "Percent Inhibition of Neurite Outgrowth over 3T3 Cells Expressing L1", "setting": "L1 [6]", "result": "0.3 ± 1.8", "unit": "%"}, {"measurement": "Disruption of SKOV3 cell adhesion (morphology)", "setting": "[7]", "result": "retract from one another and round-up"}]}, {"substance": "Ac-CINPIC-NH2 (cysteine pairing not given here)", "values": [{"measurement": "Percent Inhibition of Neurite Outgrowth", "setting": "N-cadherin [1]; [12]", "result": "7.5 ± 3.2", "unit": "%"}, {"measurement": "Percent Inhibition of Neurite Outgrowth", "setting": "N-cadherin [1]; [8]", "result": "31.5 ± 7.5", "unit": "%"}, {"measurement": "Percent Inhibition of Neurite Outgrowth", "setting": "N-cadherin [1]; [9]", "result": "56.2 ± 6.9", "unit": "%"}, {"measurement": "Percent Inhibition of Neurite Outgrowth over 3T3 Cells Expressing N-cadherin", "setting": "N-cadherin [1]; 100 μg/ml, Table IV", "result": "94.5 ± 10.5", "unit": "%"}, {"measurement": "Percent Inhibition of Neurite Outgrowth", "setting": "N-cadherin [1]; [10]", "result": "94.5 ± 10.5", "unit": "%"}, {"measurement": "EC50", "setting": "N-cadherin [1]; cyclic peptides, Table III", "result": 38.2, "unit": "µM"}, {"measurement": "Percent Inhibition of Neurite Outgrowth over 3T3 Cells Expressing NCAM", "setting": "NCAM [5]", "result": "13.7 ± 7.1", "unit": "%"}, {"measurement": "Percent Inhibition of Neurite Outgrowth over 3T3 Cells Expressing L1", "setting": "L1 [6]", "result": "7.8 ± 3.8", "unit": "%"}]}]}
